The record followed here is ChEMBL document CHEMBL1201862, “PubChem BioAssay data set” (2004).

Active and inactive are the calls of the source. Some results are limits rather than exact numbers.

The AC50 is the midpoint of the concentration-response curve, whichever way the signal moves. The EC50 is the concentration at which the effect is half-maximal. One may read the IC50 as the midpoint of a concentration-inhibition curve.

Assay [1] can be described thus: Luminescence Cell-Based Dose Retest to Confirm Inhibitors of Cancer Stem Cells. [Related pubchem assays (depositor defined):AID2717, AID2721]. It is filed as functional. As to conditions: Homo sapiens.
Assay [2] has as its target Integrin alpha-4 (Homo sapiens, UniProt P13612). Description: allosteric modulators of alpha4 integrin VLA-4 – cell-based, LIBS antibody binding, flow cytometry, SAR follow-up (AID 488791). It is filed as functional. In general terms: In flow cytometry, cells or beads pass a laser one at a time.
The target in assay [3] is Melanocortin receptor 4 (Homo sapiens, UniProt P32245). It is filed as functional, cell-based.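 Note: Cell-based assay with luminescence read-out, confirmatory dose-response testing for agonist activity of biased ligands at MC4R; human U2OS cells with tagged receptor and beta-arrestin; potency of agonists that increase receptor coupling to beta-arrestin.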
Melanocortin receptor 4, sequence (P32245 whole entry): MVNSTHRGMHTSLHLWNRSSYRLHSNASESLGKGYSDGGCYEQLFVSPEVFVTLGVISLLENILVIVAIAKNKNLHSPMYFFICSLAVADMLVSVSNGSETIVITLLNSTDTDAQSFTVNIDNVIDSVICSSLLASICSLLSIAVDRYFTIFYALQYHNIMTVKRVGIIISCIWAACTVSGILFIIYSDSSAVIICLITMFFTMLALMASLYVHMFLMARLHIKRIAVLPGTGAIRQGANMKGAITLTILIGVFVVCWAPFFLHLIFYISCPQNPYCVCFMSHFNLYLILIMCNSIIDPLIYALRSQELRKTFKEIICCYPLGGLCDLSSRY
For assay [4], the system named is Streptococcus sp. 'group A'. In words: Streptococcus pyogenes SK(-)GAS viability under kanamycin – luminescence, BacTiterGlo, confirmation, counter-screen for streptokinase expression inhibitor project, dose response (AID 1900). The class given is functional, organism-based. For orientation: The purpose of a counterscreen is to sort out artefacts and off-target activity.

Assay [5] concerns the target T1, Streptokinase A (Streptococcus pyogenes serotype M1, UniProt P10520).
T1 sequence (P10520 whole entry): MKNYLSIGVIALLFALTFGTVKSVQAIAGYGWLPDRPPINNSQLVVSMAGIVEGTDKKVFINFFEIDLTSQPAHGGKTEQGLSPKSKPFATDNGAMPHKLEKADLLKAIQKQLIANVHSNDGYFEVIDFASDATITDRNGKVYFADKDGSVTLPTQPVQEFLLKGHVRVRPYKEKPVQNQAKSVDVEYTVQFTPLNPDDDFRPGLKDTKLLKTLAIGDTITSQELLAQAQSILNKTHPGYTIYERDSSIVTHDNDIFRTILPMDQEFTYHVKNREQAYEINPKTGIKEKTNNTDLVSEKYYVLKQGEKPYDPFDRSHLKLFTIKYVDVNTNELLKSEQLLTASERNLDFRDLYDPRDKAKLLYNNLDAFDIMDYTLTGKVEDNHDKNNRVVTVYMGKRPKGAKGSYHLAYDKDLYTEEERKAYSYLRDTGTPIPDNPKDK
In words: viability-normalized secreted streptokinase activity reduction – plasminogen activation absorbance, OD405, dose response (AID 1914).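 Note: secreted streptokinase activity via plasminogen activation per viability signal from cell pellet.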 It is filed as functional, Streptococcus pyogenes M1 GAS.

For assay [6], the target named is G-protein coupled receptor 55 (Homo sapiens, UniProt Q9Y2T6). In words: inhibition of LPI-stimulated GPR55 beta-arrestin translocation – imaging, U2OS, beta-arrestin-GFP, LPI agonist, primary screen (AID 2013).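 Note: antagonist potency measured as reduced agonist-driven arrestin aggregation.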 It is filed as functional.
G-protein coupled receptor 55, sequence (Q9Y2T6 whole entry): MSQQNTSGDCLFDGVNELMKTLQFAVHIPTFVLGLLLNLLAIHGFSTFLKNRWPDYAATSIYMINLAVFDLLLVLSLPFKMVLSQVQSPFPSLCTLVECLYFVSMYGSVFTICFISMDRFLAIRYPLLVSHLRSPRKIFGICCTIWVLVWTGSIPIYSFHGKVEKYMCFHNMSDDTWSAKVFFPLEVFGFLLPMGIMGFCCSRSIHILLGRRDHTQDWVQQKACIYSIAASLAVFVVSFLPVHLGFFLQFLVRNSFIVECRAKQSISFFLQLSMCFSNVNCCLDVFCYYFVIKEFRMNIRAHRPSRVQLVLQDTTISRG
Assay [7] has as its system Streptococcus. In words: GAS UMAA2166 growth inhibition – luminescence, BacTiterGlo, counter-screen for streptokinase expression inhibitor project, dose response (AID 1915).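 Note: potency for reduction of bacterial viability or growth.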 The class given is functional, organism-based.
In assay [8] the target is T2, C-C chemokine receptor type 6 (Homo sapiens, UniProt P51684).
T2 sequence (P51684 whole entry): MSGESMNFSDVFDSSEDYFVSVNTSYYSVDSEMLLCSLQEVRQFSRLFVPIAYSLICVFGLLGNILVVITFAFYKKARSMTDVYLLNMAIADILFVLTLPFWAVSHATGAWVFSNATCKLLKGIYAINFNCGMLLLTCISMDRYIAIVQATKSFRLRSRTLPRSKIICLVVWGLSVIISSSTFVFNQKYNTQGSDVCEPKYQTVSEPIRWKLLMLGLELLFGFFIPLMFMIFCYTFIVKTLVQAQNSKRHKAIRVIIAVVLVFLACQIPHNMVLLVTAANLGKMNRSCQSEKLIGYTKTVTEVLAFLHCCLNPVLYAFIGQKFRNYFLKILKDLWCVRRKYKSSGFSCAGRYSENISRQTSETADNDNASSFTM
Description: antagonism of CCR6 beta-arrestin recruitment – cell-based, luminescent beta-arrestin readout, dose response (AID 504728). It is filed as functional. (In general: Activated receptors often draw arrestin, which recruitment assays turn into a signal.)

For assay [9], the target named is T3, Ubiquitin-conjugating enzyme E2 N (Homo sapiens, UniProt P61088).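 Note: Dose-response confirmation in a TR-FRET assay detecting UBC13-driven polyubiquitin chain formation, inhibition measured.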
T3 sequence (P61088 whole entry): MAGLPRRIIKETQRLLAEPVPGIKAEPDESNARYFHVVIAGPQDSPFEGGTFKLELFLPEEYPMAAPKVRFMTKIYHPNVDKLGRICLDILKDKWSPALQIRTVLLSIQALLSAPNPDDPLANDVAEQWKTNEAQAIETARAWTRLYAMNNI
The class given is functional.

Assay [10] has as its target Beta-galactosidase (Escherichia coli, UniProt Q8VNN2). Description: detection-enzyme interference by beta-gal modulators – biochemical, E. coli enzyme, set 3, artefact control for CCR6 antagonist project, dose response (AID 504712). The class given is functional.
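Throughout, for AC50: cells exposed to compound for roughly 70 hours or longer before luminescence read.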

Beta-galactosidase, sequence (Q8VNN2 whole entry): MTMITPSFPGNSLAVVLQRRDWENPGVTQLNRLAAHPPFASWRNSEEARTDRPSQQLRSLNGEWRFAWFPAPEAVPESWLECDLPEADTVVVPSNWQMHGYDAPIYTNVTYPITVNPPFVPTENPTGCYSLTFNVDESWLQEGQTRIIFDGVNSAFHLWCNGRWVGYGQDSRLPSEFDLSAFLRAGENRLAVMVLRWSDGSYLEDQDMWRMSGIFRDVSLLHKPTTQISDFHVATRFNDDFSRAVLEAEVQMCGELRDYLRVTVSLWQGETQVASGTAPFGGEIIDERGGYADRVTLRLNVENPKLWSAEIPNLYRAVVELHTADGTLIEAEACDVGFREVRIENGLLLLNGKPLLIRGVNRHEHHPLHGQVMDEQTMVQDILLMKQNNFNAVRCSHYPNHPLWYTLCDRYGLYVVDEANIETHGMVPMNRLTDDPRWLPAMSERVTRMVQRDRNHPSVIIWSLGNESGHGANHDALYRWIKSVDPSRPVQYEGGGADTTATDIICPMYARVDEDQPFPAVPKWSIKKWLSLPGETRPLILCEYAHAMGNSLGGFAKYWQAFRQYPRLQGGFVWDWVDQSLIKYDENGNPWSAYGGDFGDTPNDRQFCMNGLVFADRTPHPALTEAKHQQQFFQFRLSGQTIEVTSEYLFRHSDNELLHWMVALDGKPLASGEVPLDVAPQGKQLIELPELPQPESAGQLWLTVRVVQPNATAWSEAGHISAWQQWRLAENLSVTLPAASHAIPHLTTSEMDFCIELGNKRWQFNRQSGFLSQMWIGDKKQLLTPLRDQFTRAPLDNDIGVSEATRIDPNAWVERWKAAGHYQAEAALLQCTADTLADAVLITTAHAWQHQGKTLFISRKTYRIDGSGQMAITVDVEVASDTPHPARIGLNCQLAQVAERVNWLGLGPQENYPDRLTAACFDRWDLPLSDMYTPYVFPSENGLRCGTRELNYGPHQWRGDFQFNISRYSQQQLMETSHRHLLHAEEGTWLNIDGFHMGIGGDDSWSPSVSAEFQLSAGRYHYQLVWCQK
Integrin alpha-4, sequence (P13612 whole entry): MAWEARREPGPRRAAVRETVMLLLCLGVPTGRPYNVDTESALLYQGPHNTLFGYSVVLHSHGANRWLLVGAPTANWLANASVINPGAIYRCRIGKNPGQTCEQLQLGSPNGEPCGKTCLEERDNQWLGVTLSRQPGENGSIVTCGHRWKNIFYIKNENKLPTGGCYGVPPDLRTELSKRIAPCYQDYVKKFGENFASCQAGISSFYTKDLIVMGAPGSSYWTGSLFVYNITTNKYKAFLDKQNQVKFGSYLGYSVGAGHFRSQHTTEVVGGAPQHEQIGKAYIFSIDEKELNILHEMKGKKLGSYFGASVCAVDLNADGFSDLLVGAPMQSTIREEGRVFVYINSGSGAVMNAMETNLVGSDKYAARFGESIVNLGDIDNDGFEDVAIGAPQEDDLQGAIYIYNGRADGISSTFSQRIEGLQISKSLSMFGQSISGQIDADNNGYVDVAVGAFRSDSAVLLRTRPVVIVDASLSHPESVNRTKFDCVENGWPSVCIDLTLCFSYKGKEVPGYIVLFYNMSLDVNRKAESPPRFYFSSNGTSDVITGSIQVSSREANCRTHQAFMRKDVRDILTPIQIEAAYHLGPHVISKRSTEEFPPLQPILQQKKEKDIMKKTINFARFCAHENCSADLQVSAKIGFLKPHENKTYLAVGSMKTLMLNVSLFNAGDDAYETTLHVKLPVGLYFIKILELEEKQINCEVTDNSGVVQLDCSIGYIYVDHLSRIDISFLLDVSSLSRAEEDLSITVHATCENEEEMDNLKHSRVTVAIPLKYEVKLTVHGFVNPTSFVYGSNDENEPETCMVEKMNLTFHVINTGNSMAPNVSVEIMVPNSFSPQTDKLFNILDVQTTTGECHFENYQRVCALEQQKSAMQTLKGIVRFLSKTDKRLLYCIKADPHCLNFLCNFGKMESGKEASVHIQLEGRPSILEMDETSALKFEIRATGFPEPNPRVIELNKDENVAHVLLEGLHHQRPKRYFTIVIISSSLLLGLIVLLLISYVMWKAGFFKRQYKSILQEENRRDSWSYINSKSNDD

For `c1ccc(-c2sc3ccccc3c2-c2ccc(OCCN3CCCC3)cc2)cc1`, in assay [1], the AC50 is 2.21 µM (active). In addition, the figures for the EC50 in [2] and in [3] were 26.1 µM (active) and > 89.2 µM (inactive), respectively.
Turning to `Cc1c(CCOC(=O)C2C3CC4CC(C3)CC2C4)sc[n+]1CC(=O)c1ccc(Br)cc1` (stereo unspecified), the concentration for a half-maximal effect (EC50) in [4] was 8.85 µM (active); in assay [5], 21.9 µM (active); in assay [7] it was > 150 µM (not active). Moreover, the IC50 is 3.25 µM (active) in assay [6], 27 µM (inactive) in assay [8], > 20 µM (inactive) in assay [9] and > 66.6 µM (inactive) in assay [10]. In addition, in assay [1], the AC50 is 2.17 µM (active).
